# Several values for one entry are separate records, joined by “and”; a condition that tells them apart may be missing. Identical values can stand only once.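 Cultured in 96-well plates, cells were exposed to test compound for 48 hours across five concentrations. Here, GI50 denotes the concentration required for 50% inhibition of growth. TGI is the concentration that stops growth completely.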
# Experiments:
# Assay in all cases: growth of human tumour cells (NCI), 48 h
# A549 NSCLC = system: A549 NSCLC
# CCRF-CEM leukemia = system: CCRF-CEM leukemia
# HCC-2998 colon = system: HCC-2998 colon
# IGROV1 ovarian = system: IGROV1 ovarian
# NCI-H522 lung = system: NCI-H522 lung
# OVCAR-3 ovarian = system: OVCAR-3 ovarian
# PC-3 prostate = system: PC-3 prostate
# SN12C renal = system: SN12C renal
Compound,GI50 (A549 NSCLC),TGI (A549 NSCLC),GI50 (CCRF-CEM leukemia),TGI (CCRF-CEM leukemia),GI50 (HCC-2998 colon),TGI (HCC-2998 colon),GI50 (IGROV1 ovarian),TGI (IGROV1 ovarian),GI50 (NCI-H522 lung),TGI (NCI-H522 lung),GI50 (OVCAR-3 ovarian),TGI (OVCAR-3 ovarian),GI50 (PC-3 prostate),TGI (PC-3 prostate),GI50 (SN12C renal),TGI (SN12C renal)
Nc1ccn(C2CC(O)C(CO)O2)c(=O)n1 (stereo not given),> 5000 µM,> 5000 µM,> 5000 µM,> 5000 µM,> 5000 µM,> 5000 µM,> 5000 µM,> 5000 µM,> 5000 µM,> 5000 µM,> 5000 µM,> 5000 µM,> 5000 µM,> 5000 µM,> 5000 µM,> 5000 µM
O=C(O)CCCSc1nc2ccccc2s1,–,> 100 µM,–,> 100 µM,–,> 100 µM,–,> 100 µM,–,> 100 µM,–,> 100 µM,–,> 100 µM,–,> 100 µM
COc1ccc2[nH]c(=O)c(/C=C/C(=O)/C=C/c3ccc(O)c(OC)c3)cc2c1,2.24 µM,6.35 µM,2.06 µM,> 100 µM,1.97 µM,3.64 µM,1.77 µM,4.24 µM,1.74 µM,3.87 µM,1.18 µM,2.55 µM,1.83 µM,4.94 µM,1.89 µM,4.49 µM
CCOC(=O)c1ccc(Nc2sc(C(=O)c3cccc([N+](=O)[O-])c3)c(N)c2C#N)cc1,0.23 µM,–,0.067 µM,8.34 µM,2.78 µM,> 100 µM,0.0244 µM,26 µM,0.0277 µM,0.852 µM,0.0218 µM,0.0617 µM,0.179 µM,> 32.1 µM,0.497 µM,> 46.7 µM
O=C(NNc1ccccc1)OCc1ccccc1,9.18 µM,> 100 µM,3.94 µM,> 100 µM,17.6 µM,> 100 µM,15.2 µM,> 100 µM,33.6 µM,> 100 µM,21 µM,> 100 µM,5.35 µM,> 100 µM,73.8 µM,> 100 µM
CN1CCN(Cc2ccc(NC(=O)c3nc4ccc5[nH]ncc5c4c4c3CCC4)cc2C(F)(F)F)CC1,0.92 µM,1.83 µM,1.25 µM,3.64 µM,0.83 µM,1.65 µM,0.907 µM,1.7 µM,0.981 µM,2.31 µM,0.904 µM,1.68 µM,0.926 µM,2.12 µM,0.873 µM,1.64 µM
CCCCCCCCCCCC[n+]1ccccc1,2.02 µM,5.16 µM,1.34 µM,8.55 µM,1.37 µM,5.29 µM,1 µM,2.85 µM,0.665 µM,2.84 µM,0.835 µM,2.88 µM,0.374 µM,2.76 µM,1.63 µM,4.11 µM
O=C1c2ccccc2-c2n[nH]c3cccc1c23,–,> 100 µM,–,> 100 µM,19.3 µM,54.6 µM and > 100 µM,9.32 µM,> 100 µM and 99.1 µM,15.7 µM,50.4 µM and > 92.8 µM,23.8 µM,92.1 µM and > 100 µM,17.8 µM,> 100 µM,20.8 µM,> 100 µM
Cc1ccc(N=Nc2c(N)nn(-c3ccccc3)c2N)cc1,2.13 µM,> 100 µM,2.06 µM,–,0.912 µM,> 100 µM,4.5 µM,> 100 µM,1 µM,> 100 µM,0.705 µM,3.58 µM,1.53 µM,6.17 µM,7.66 µM,> 100 µM
S=C=NCc1ccccc1,–,17.9 µM,–,2.48 µM,–,23.1 µM,–,8.17 µM,–,4.45 µM,–,11.3 µM,–,19.8 µM,–,> 36.8 µM
COc1cc2ccnc3c2c(c1OC)-c1ccc(=O)ccc1-3,18.2 µM,55.4 µM,13.7 µM,41.7 µM,32.1 µM,> 100 µM,47 µM,> 100 µM,23.4 µM,71.3 µM,21.8 µM,56.2 µM,29.7 µM,> 100 µM,31 µM,> 100 µM
C=CC(=O)N1CCC([C@@H]2CCNc3c(C(N)=O)c(-c4ccc(Oc5ccccc5)cc4)nn32)CC1,13.2 µM,> 100 µM,19.4 µM,> 73.2 µM,14.2 µM,29.6 µM,0.912 µM,16.7 µM,3.06 µM,20.3 µM,11 µM,32 µM,20.5 µM,69.3 µM,12.1 µM,80.4 µM
N#Cc1cccc(/C=C(/C(=O)c2ccccc2)c2ccccc2)c1,10.8 µM,47.6 µM,2.56 µM,12.8 µM,3.15 µM,9.35 µM,4.27 µM,25.3 µM,2.35 µM,6.95 µM,3.63 µM,11.8 µM,6.27 µM,36.6 µM,3.85 µM,25.9 µM
O=C(Nc1ccccc1)NS(=O)(=O)c1ccc(N2N=C3c4ccccc4CC3C2c2ccccn2)cc1 (stereo not given),29.2 µM,> 100 µM,40.9 µM,> 100 µM,17.3 µM,33.3 µM,16.2 µM,80.5 µM,17.7 µM,58.3 µM,21.6 µM,74.4 µM,36.6 µM,> 100 µM,30.4 µM,> 100 µM
CC1(C)CC(OCCCC[P+](c2ccccc2)(c2ccccc2)c2ccccc2)CC(C)(C)N1O,0.37 µM,11.5 µM,0.246 µM,1.52 µM,0.287 µM,3.19 µM,0.477 µM,2.02 µM,0.275 µM,1.16 µM,0.241 µM,0.871 µM,0.205 µM,4.04 µM,0.306 µM,1.18 µM
